Data published in patent US5101048A, “β-D-phenylthioxylosides, their method of preparation and their use as therapeutic agents” (Fournier Industrie et Sante, priority 1988, dated 1992).

Key:
[1] = Venous thrombosis: venous stasis under hypercoagulation (Wessler), thrombus removed and weighed; assay type: in vivo, male Wistar rats; conditions: Rattus norvegicus, po, suspension in PEG 400, thrombosis induced 4 hours after treatment; for inhibition in vivo at 3 mg/kg: 3 mg/kg administered orally; for inhibition in vivo at 12.5 mg/kg: 12.5 mg/kg administered orally
Description: A venous stasis under hypercoagulation is produced according to the technique described by WESSLER et al. (J. Applied Physiol. 1959, p. 943-946). As in the technique described by J. HAUPMAN et al. (Thrombosis and Haemostasis 43(2), 1980, p. 118), the hypercoagulant used is a solution of activated factor X (Xa) supplied by Flow Laboratories (71 Knat per 12.5 ml of physiological serum).
The study is performed on unfasted male Wistar rats weighing 250 to 280 g, divided into groups of 10 animals each. The products to be tested are administered orally as a suspension in PEG 400. A thrombosis is induced 4 hours after this treatment and the thrombus formed is removed and weighed.
The results obtained at doses of 3 mg/kg or 12.5 mg/kg, administered orally, have been collated in Table II. The results obtained with the known products of the above-mentioned prior art have also been collated in this Table.

[2] = as above; assay type: in vivo, male Wistar rats; conditions: 50 mg/kg administered orally

N#Cc1ccc2cc(S[C@@H]3SC[C@@H](O)[C@H](O)[C@H]3O)ccc2c1 [Example 8, 2-(6-cyanonaphthalenyl) 1,5-dithio-β-D-xylopyranoside]
inhibition in vivo at 3 mg/kg [1]: 31% | inhibition in vivo at 12.5 mg/kg [1]: 94.7%

Nc1ccc(S[C@@H]2SC[C@@H](O)[C@H](O)[C@H]2O)cc1 [Example 18, 4-aminophenyl 1,5-dithio-β-D-xylopyranoside]
inhibition in vivo at 3 mg/kg [1]: 30% | inhibition in vivo at 12.5 mg/kg [1]: 93%

N#Cc1ccccc1O[C@@H]1SC[C@@H](O)[C@H](O)[C@H]1O [Example 26, 2-cyanophenyl 5-thio-β-D-xylopyranoside]
inhibition in vivo at 3 mg/kg [1]: 63.5% | inhibition in vivo at 12.5 mg/kg [1]: 96%

O=[N+]([O-])c1ccccc1S[C@@H]1SC[C@@H](O)[C@H](O)[C@H]1O [Example 7, 2-nitrophenyl 1,5-dithio-β-D-xylopyranoside]
inhibition in vivo at 3 mg/kg [1]: 33% | inhibition in vivo at 12.5 mg/kg [1]: 96.7%

N#Cc1ccc(-c2ccc(S[C@@H]3SC[C@@H](O)[C@H](O)[C@H]3O)cc2)cc1 [Example 14, 4-(4-cyanophenyl)phenyl 1,5-dithio-β-D-xylopyranoside]
inhibition in vivo at 3 mg/kg [1]: 27% | inhibition in vivo at 12.5 mg/kg [1]: 86%

N#Cc1cccc(O[C@@H]2SC[C@@H](O)[C@H](O)[C@H]2O)c1 [Example 27, 3-cyanophenyl 5-thio-β-D-xylopyranoside]
inhibition in vivo at 3 mg/kg [1]: 66% | inhibition in vivo at 12.5 mg/kg [1]: 98%

CC(=O)Nc1ccc(S[C@@H]2SC[C@@H](O)[C@H](O)[C@H]2O)cc1 [Example 19, 4-acetamidophenyl 1,5-dithio-β-D-xylopyranoside]
inhibition in vivo at 3 mg/kg [1]: 61% | inhibition in vivo at 12.5 mg/kg [1]: 93%

Nc1cccc(S[C@@H]2SC[C@@H](O)[C@H](O)[C@H]2O)c1 [Example 21, 3-aminophenyl 1,5-dithio-β-D-xylopyranoside]
inhibition in vivo at 3 mg/kg [1]: 31%

N#Cc1ccc(S[C@@H]2SC[C@@H](O)[C@H](O)[C@H]2O)c(C#N)c1 [Example 16, 2,4-dicyanophenyl 1,5-dithio-β-D-xylopyranoside]
inhibition in vivo at 3 mg/kg [1]: 42.5% | inhibition in vivo at 12.5 mg/kg [1]: 99.5%

CC(=O)Nc1ccc(S[C@@H]2SC[C@@H](OC(C)=O)[C@H](OC(C)=O)[C@H]2OC(C)=O)cc1 [Example 19a, 4-acetamidophenyl 2,3,4-tri-O-acetyl-1,5dithio-β-D-xylopyranoside]
inhibition in vivo at 3 mg/kg [1]: 66%

N#Cc1c(O[C@@H]2SC[C@@H](O)[C@H](O)[C@H]2O)ccc2ccccc12 [Example 31, 2-(1-cyanonaphthalenyl) 5-thio-β-D-xylopyranoside]
inhibition in vivo at 3 mg/kg [1]: 28%

CC(=O)c1ccccc1O[C@@H]1SC[C@@H](O)[C@H](O)[C@H]1O [Example 29, 2-acetylphenyl 5-thio-β-D-xylopyranoside]
inhibition in vivo at 3 mg/kg [1]: 26%

CC(=O)O[C@@H]1[C@@H](OC(C)=O)[C@H](OC(C)=O)CS[C@H]1Oc1ccc([N+](=O)[O-])cc1 [Example 23a, 4-nitrophenyl 2,3,4-tri-O-acetyl-5-thio-β-D-xylopyranoside]
inhibition in vivo at 3 mg/kg [1]: 44%

N#Cc1cc(C#N)c(S[C@@H]2SC[C@@H](O)[C@H](O)[C@H]2O)c(C#N)c1 [Example 17, 2,4,6-tricyanophenyl 1,5-dithio-β-D-xylopyranoside]
inhibition in vivo at 3 mg/kg [1]: 8% | inhibition in vivo at 12.5 mg/kg [1]: 40%

O=[N+]([O-])c1ccc(S[C@@H]2SC[C@@H](O)[C@H](O)[C@H]2O)cc1 [Example 2, 4-nitrophenyl 1,5-dithio-β-D-xylopyranoside]
inhibition in vivo at 3 mg/kg [1]: 35% | inhibition in vivo at 12.5 mg/kg [1]: 78%

CC(=O)O[C@@H]1[C@@H](OC(C)=O)[C@H](OC(C)=O)CS[C@H]1Oc1ccc2ccccc2c1C#N [Example 31a, 2-(1-cyanonaphthalenyl) 2,3,4-tri-O-acetyl-5-thio-β-D-xylopyranoside]
inhibition in vivo at 3 mg/kg [1]: 44.5%

O[C@@H]1[C@@H](O)[C@H](Sc2ccc3ccccc3c2)SC[C@H]1O [Example 3, 2-naphthalenyl 1,5-dithio-β-D-xylopyranoside]
inhibition in vivo at 12.5 mg/kg [1]: 38%

CC(=O)O[C@@H]1[C@@H](OC(C)=O)[C@H](OC(C)=O)CS[C@H]1Oc1cccc(C#N)c1 [Example 27a, 3-cyanophenyl 2,3,4-tri-O-acetyl-5-thio-β-D-xylopyranoside]
inhibition in vivo at 3 mg/kg [1]: 57%

CC(=O)O[C@@H]1[C@@H](OC(C)=O)[C@H](Sc2ccc(C#N)cc2)SC[C@H]1OC(C)=O [Example 1a, 4-cyanophenyl 2,3,4-tri-O-acetyl-1,5-dithio-β-D-xylopyranoside]
inhibition in vivo at 3 mg/kg [1]: 30% | inhibition in vivo at 12.5 mg/kg [1]: 90%

CC(=O)c1ccc(S[C@@H]2SC[C@@H](O)[C@H](O)[C@H]2O)cc1 [Example 11, 4-acetylphenyl 1,5-dithio-β-D-xylopyranoside]
inhibition in vivo at 3 mg/kg [1]: 47% | inhibition in vivo at 12.5 mg/kg [1]: 98.3%

CC(=O)O[C@@H]1[C@@H](OC(C)=O)[C@H](OC(C)=O)CS[C@H]1Oc1ccc(C#N)cc1 [Example 22a, 4-cyanophenyl 2,3,4-tri-O-acetyl-5-thio-β-D-xylopyranoside]
inhibition in vivo at 3 mg/kg [1]: 66%

O[C@@H]1[C@@H](O)[C@H](Sc2ccccc2C(F)(F)F)SC[C@H]1O [Example 13, 2-trifluoromethylphenyl 1,5-dithio-β-D-xylopyranoside]
inhibition in vivo at 12.5 mg/kg [1]: 23%

O=[N+]([O-])c1cccc(S[C@@H]2SC[C@@H](O)[C@H](O)[C@H]2O)c1 [Example 12, 3-nitrophenyl 1,5-dithio-β-D-xylopyranoside]
inhibition in vivo at 12.5 mg/kg [1]: 69%

O=[N+]([O-])c1ccccc1O[C@@H]1SC[C@@H](O)[C@H](O)[C@H]1O [Example 28, 2-nitrophenyl 5-thio-β-D-xylopyranoside]
inhibition in vivo at 3 mg/kg [1]: 51% | inhibition in vivo at 12.5 mg/kg [1]: 94%

O=C(c1ccc(S[C@@H]2SC[C@@H](O)[C@H](O)[C@H]2O)cc1)C(F)(F)F [Example 20, 4-trifluoroacetylphenyl 1,5-dithio-β-D-xylopyranoside]
inhibition in vivo at 3 mg/kg [1]: 49%

O[C@@H]1[C@@H](O)[C@H](Sc2ccc(C(F)(F)F)cc2)SC[C@H]1O [Example 4, 4-trifluoromethylphenyl 1,5-dithio-β-D-xylopyranoside]
inhibition in vivo at 12.5 mg/kg [1]: 66%

COc1cc(S[C@@H]2SC[C@@H](O)[C@H](O)[C@H]2O)cc(OC)c1OC [Example 10, 3,4,5-trimethoxyphenyl 1,5-dithio-β-D-xylopyranoside]
inhibition in vivo at 12.5 mg/kg [1]: 36.5%

N#Cc1ccccc1S[C@@H]1SC[C@@H](O)[C@H](O)[C@H]1O [Example 6, 2-cyanophenyl 1,5-dithio-β-D-xylopyranoside]
inhibition in vivo at 3 mg/kg [1]: 35% | inhibition in vivo at 12.5 mg/kg [1]: 88.6%

CC(=O)c1cccc(O[C@@H]2SC[C@@H](O)[C@H](O)[C@H]2O)c1 [Example 25, 3-acetylphenyl 5-thio-β-D-xylopyranoside]
inhibition in vivo at 3 mg/kg [1]: 44.5%

CC(=O)c1ccc(O[C@@H]2SC[C@@H](O)[C@H](O)[C@H]2O)cc1 [Example 24, 4-acetylphenyl 5-thio-β-D-xylopyranoside]
inhibition in vivo at 3 mg/kg [1]: 55% | inhibition in vivo at 12.5 mg/kg [1]: 100%

O=[N+]([O-])c1ccc(O[C@@H]2SC[C@@H](O)[C@H](O)[C@H]2O)cc1 [Example 23, 4-nitrophenyl 5-thio-β-D-xylopyranoside]
inhibition in vivo at 3 mg/kg [1]: 37.5% | inhibition in vivo at 12.5 mg/kg [1]: 94%

N#Cc1ccc2cc(O[C@@H]3SC[C@@H](O)[C@H](O)[C@H]3O)ccc2c1 [Example 30, 2-(6-cyanonaphthalenyl) 5-thio-β-D-xylopyranoside]
inhibition in vivo at 3 mg/kg [1]: 51%

N#Cc1cccc(S[C@@H]2SC[C@@H](O)[C@H](O)[C@H]2O)c1 [Example 5, 3-cyanophenyl 1,5-dithio-β-D-xylopyranoside]
inhibition in vivo at 3 mg/kg [1]: 28% | inhibition in vivo at 12.5 mg/kg [1]: 79.5%

CC(=O)O[C@@H]1[C@@H](OC(C)=O)[C@H](OC(C)=O)CS[C@H]1Oc1cccc(C(C)=O)c1 [Example 25a, 3-acetylphenyl 2,3,4-tri-O-acetyl-5-thio-β-D-xylopyranoside]
inhibition in vivo at 3 mg/kg [1]: 52%

N#Cc1ccc(O[C@@H]2SC[C@@H](O)[C@H](O)[C@H]2O)cc1 [Example 22, 4-cyanophenyl 5-thio-β-D-xylopyranoside]
inhibition in vivo at 3 mg/kg [1]: 57%

COc1cc(S[C@@H]2SC[C@@H](OC(C)=O)[C@H](OC(C)=O)[C@H]2OC(C)=O)cc(OC)c1OC [Example 10a, 3,4,5-trimethoxyphenyl 2,3,4-tri-O-acetyl-1,5-dithio-β-D-xylopyranoside]
inhibition in vivo at 12.5 mg/kg [1]: 62%

N#Cc1ccc(S[C@@H]2SC[C@@H](O)[C@H](O)[C@H]2O)cc1 [Example 1, 4-cyanophenyl 1,5-dithio-β-D-xylopyranoside]
inhibition in vivo at 3 mg/kg [1]: 53% | inhibition in vivo at 12.5 mg/kg [1]: 90%

CC(=O)O[C@@H]1[C@@H](OC(C)=O)[C@H](Sc2ccc(C#N)cc2C#N)SC[C@H]1OC(C)=O [Example 16a, 2,4-dicyanophenyl 2,3,4-tri-O-acetyl-1,5-dithio-β-D-xylopyranoside]
inhibition in vivo at 12.5 mg/kg [1]: 72.8%

O[C@@H]1[C@@H](O)[C@H](Sc2ccccc2)SC[C@H]1O [Example 9, phenyl 1,5-dithio-β-D-xylopyranoside]
% inhibition at 50 mg/kg (footnote) [2]: 82% | inhibition in vivo at 12.5 mg/kg [1]: 11%
